Data published in patent EP4650362A1, “NEUROPROTECTIVE PSD-95 POLYPEPTIDE INHIBITOR AND USE THEREOF” (Beijing Tuo Jie Biopharmaceutical Co. Ltd., priority 2023, dated 2024).
Read-outs that look alike come from different tables or passages of the source. Non-standard residues stand in square brackets, D forms with d. Residues, ends and D or L forms follow the SMILES beside them. No end group written: not given here. Tle = CC(C)(C)[C@H](N)C(=O)O; Dab = NCC[C@H](N)C(=O)O; Aib = CC(C)(N)C(=O)O

Legend:
human PSD95-PDZ2 [1] = biological target: T1, human PSD95-PDZ2 (Homo sapiens, UniProt P78352); experiment: binding ELISA with Biotin-PDZ2
T1 construct: PDZ2 (155-249, the Flag-His-Avitag-TEVsite tag is italicized); made in house; host or cells: E. coli BL21-DE3 (PET vector)
Excerpt: The three PDZ domains in the PSD95 protein are structurally similar. Binding to the PDZ1 and PDZ2 domains can effectively block PSD95-mediated neuroexcitotoxicity. However, the biological function of binding to the PDZ3 domain is unclear. Therefore, to avoid potential safety concerns, this test example assessed the selectivity of polypeptide compounds for the PDZ2 and PDZ3 domains, aiming to identify polypeptide compounds that specifically bind to the PDZ2 domain. Site-specifically biotinylated Biotin-PDZ2 and Biotin-PDZ3 proteins were used for binding ELISA assays. […] After the blocking was complete, the blocking solution was discarded, and the plate was washed three times with PBST buffer. […] After the incubation was complete, the reaction solutions in the microplate were discarded, and the plate was washed three times with PBST. 100 µL of HRP-SA secondary antibody (diluted at 1:2000) was added to each well, and the plate was incubated at 37 °C for 1 h. After the plate was washed three times with PBST, 100 µL of TMB chromogenic substrate was added. […] The absorbance at 450 nm was measured using a SpectraMax M5 microplate reader, and the binding EC50 values of the test compounds to Biotin-PDZ2 or Biotin-PDZ3 were calculated using GraphPad Prism 9. […] The abilities of polypeptide compounds to bind to human PSD95-PDZ2 and human PSD95-PDZ3
Target sequence in this assay (P78352 155-249): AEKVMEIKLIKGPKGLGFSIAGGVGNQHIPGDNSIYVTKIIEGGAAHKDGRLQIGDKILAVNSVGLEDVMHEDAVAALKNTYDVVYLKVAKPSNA

human PSD95-PDZ2 [2] = biological target: T1, human PSD95-PDZ2; experiment: competitive ELISA, affinity for human PSD95-PDZ2; format: binding
Excerpt: The objective of this test example was to determine the affinities of polypeptide compounds for human PSD95-PDZ2 using competitive ELISAs.
The amino acid sequence of PDZ2 protein was designed using human PSD95 (Uniprot Entry: P78352) as a template for PDZ: PDZ2 (155-249, the Flag-His-Avitag-TEVsite tag is italicized and was subsequently used for purification and biotinylation): […]
[…] (SEQ ID NO. 62). The PDZ2 gene was constructed onto a PET expression vector, and induced expression was performed using BL21-DE3 E. coli cells under conditions of 37 °C and 1 mM IPTG 4 h. Then centrifugation was performed at 10,000 g at 4 °C for 10 min, and the cell pellets were collected, resuspended in 1× PBS solution, and then lysed using a homogenizer. The lysate was centrifuged at high speed, and the supernatant was collected and filtered through a 0.45 µm membrane. A Ni-Sepharose affinity column was equilibrated with 5 column volumes of a 20 mM phosphate buffer (pH 8.0). The sample was centrifuged at high speed to remove impurities and loaded onto the column for binding. The column was rinsed with the 20 mM phosphate buffer until the A280 reading dropped to the baseline. Gradient elution was then performed with the 20 mM phosphate buffer and 0-500 mM imidazole. A protein was collected, and whether it was the target protein was determined. The purified sample described above was buffer-exchanged into 1× PBS solution, and the resulting solution was concentrated to a volume of 2 mL and further purified using a Superdex200 gel chromatography column (GE) equilibrated with 1× PBS. The target peak was collected and aliquoted for later use.
PSD95-PDZ2 (the tag was removed by TEV enzyme) was diluted with 1× PBS buffer to 1 µg/mL, added to a 96-well microplate (Corning, 9018, 25/box 96-well clear flat bottom plate) at 100 µL/well, and left to stand overnight at 4 °C for 16-20 h. After the liquid was discarded, the plate was washed three times with PBST (pH 7.4, 0.05% Tween-20) buffer, and a 4% BSA blocking solution diluted with PBST buffer was then added (300 µL/well). The plate was blocked by incubation in an incubator at 37 °C for 1 h. After the blocking was complete, the blocking solution was discarded, and the plate was washed three times with PBST buffer. Biotin-NA-1, at a constant concentration of 0.3 µM, and the test compounds, having a starting concentration of 100 µM and serially diluted ten-fold with PBS buffer to seven concentrations (100, 10, 1, 0.1, 0.01, 0.001, 0.0001, and 0 µM), were then added, and the plate was incubated in an incubator at 37 °C for 1 h. After the incubation was complete, the reaction solutions in the microplate were discarded, and the plate was washed three times with PBST. 100 µL of HRP-SA secondary antibody (diluted at 1:2000) was added to each well, and the plate was incubated at 37 °C for 1 h. After the plate was washed three times with PBST, 100 µL of TMB chromogenic substrate was added. The plate was incubated at room temperature for 1-3 min, and 100 µL of 1 M sulfuric acid was added to stop the reaction.
The absorbance at 450 nm was measured using a SpectraMax M5 microplate reader, and non-linear fitting was performed using GraphPad Prism 9 to calculate the binding IC50 values of the test compounds to PSD95-PDZ2 protein.

rabbit whole blood = experiment: hemolysis risk test in rabbit whole blood; format: cell-based; details: concentration range of 1 to 50 µM
Experimental: Preparation of red blood cell suspension: 100 µL of fresh whole blood was collected, and 900 µL of 1× PBS solution was then added. The mixture was shaken on a plate shaker at 30 rpm for 5 min and then centrifuged at 1000 g for 5 min, and the supernatant was discarded. The above washing step was repeated until the supernatant no longer appeared red. The suspension was set aside for later use.
Preparation of test polypeptide solutions: An appropriate amount of 1× PBS solution was added to a powdered polypeptide, and the polypeptide was dissolved to form a standard stock solution. The stock solution was then diluted with 1× PBS to form test solutions with concentrations of 1, 3, 10, 30, 100, and 300 µg/mL, and two replicate wells were set for each concentration. Meanwhile, blank 1× PBS was used as a negative control, and a 1× PBS solution containing 0.1% Triton X-100 was used as a positive control.
Incubation: A test solution (500 µL) was added to the red blood cell suspension, and then the mixture was well shaken on a plate shaker at 30 rpm for 5 min, incubated at 37 °C for 1 h, and centrifuged at 1000 g for 5 min.
100 µL of the supernatant was transferred to a single well of a microplate. The absorbance at 540 nm was measured using a SpectraMax M5 microplate reader, and data analysis was performed using GraphPad Prism 9. The hemolysis rate (%) was calculated using the formula: (test sample absorbance - negative control absorbance) / (positive control absorbance - negative control absorbance) × 100%. A rate of less than 5% indicates the absence of hemolysis, while a rate of greater than 5% indicates the presence of hemolysis. Table 3. Testing of the hemolysis risk of the polypeptide compound
A method similar to that in section 3.3.2 was adopted, with the difference being that this test example used fresh rabbit whole blood instead.

[3] = competitive ELISA against 0.3 µM Biotin-NA-1, error of this test within three times, read-out: IC50

Molecule	EC50 (human PSD95-PDZ2 [1])	IC50 (human PSD95-PDZ2 [2])	hemolysis rates (rabbit whole blood)	EC50 (human PSD95-PDZ2 [1]; plate coated with 2 µM test compound, Biotin-PDZ2 titrated, read-out: EC50 (PDZ2))	IC50 (human PSD95-PDZ2 [2]; [3])
CC[C@H](C)[C@H](NC(=O)[C@H](CO)NC(=O)[C@H](CO)NC(=O)[C@H](CC(C)C)NC(=O)[C@@H](CCCCN)NC(=O)[C@H](CCCNC(=N)N)NC(=O)[C@H](CCCNC(=N)N)NC(=O)[C@@H](CCCNC(=N)N)NC(=O)[C@H](CCC(N)=O)NC(=O)[C@@H](CCCNC(=N)N)NC(=O)[C@H](CCCNC(=N)N)NC(=O)[C@H](CCCCN)NC(=O)[C@H](CCCCN)NC(=O)[C@@H](CCCNC(=N)N)NC(=O)CNC(=O)[C@@H](N)Cc1ccc(O)cc1)C(=O)N[C@@H](CCC(=O)O)C(=O)N[C@@H](CO)C(=O)N[C@@H](CC(=O)O)C(=O)N[C@H](C(=O)O)C(C)C [NoNO42, YGrKKRrQrRRkLSSIESDV, reference compound] (H-YG[dR]KKR[dR]Q[dR]RR[dK]LSSIESDV-OH)	98 nM	917 nM	less than 5%	–	–
CC(C)[C@H](NC(=O)[C@H](CC(=O)O)NC(=O)[C@@H](NC(=O)[C@@H](NC(=O)[C@@H](NC(=O)[C@@H](NC(=O)[C@H](CCN)NC(=O)C(C)(C)NC(=O)CNC(=O)[C@@H](CCCNC(=N)N)NC(=O)[C@@H](CCCNC(=N)N)NC(=O)[C@@H](CCCNC(=N)N)NC(=O)[C@@H](CCC(N)=O)NC(=O)[C@@H](CCCNC(=N)N)NC(=O)[C@@H](CCCNC(=N)N)NC(=O)[C@@H](CCCCN)NC(=O)[C@@H](CCCCN)NC(=O)[C@@H](CCCNC(=N)N)NC(=O)CNC(=O)[C@H](N)Cc1ccc(O)cc1)[C@@H](C)O)C(C)(C)C)C(C)(C)C)[C@@H](C)O)C(=O)O [Polypeptide compound 14, y-G-r-k-k-r-r-q-r-r-r-G-Aib-Dab-T-Tle-Tle-T-D-V] (H-[dY]G[dR][dK][dK][dR][dR][dQ][dR][dR][dR]G[Aib][Dab]T[Tle][Tle]TDV-OH)	–	–	less than 5%	76 nM	713 nM
CC(C)[C@H](NC(=O)[C@H](CC(=O)O)NC(=O)[C@@H](NC(=O)[C@@H](NC(=O)[C@@H](NC(=O)[C@@H](NC(=O)[C@H](CCN)NC(=O)C(C)(C)NC(=O)CNC(=O)[C@@H](CCCNC(=N)N)NC(=O)[C@H](CCCNC(=N)N)NC(=O)[C@H](CCCNC(=N)N)NC(=O)[C@H](CCC(N)=O)NC(=O)[C@@H](CCCNC(=N)N)NC(=O)[C@H](CCCNC(=N)N)NC(=O)[C@H](CCCCN)NC(=O)[C@H](CCCCN)NC(=O)[C@H](N)CCCNC(=N)N)[C@@H](C)O)C(C)(C)C)C(C)(C)C)[C@@H](C)O)C(=O)O [Polypeptide compound 22, r-K-K-R-r-Q-R-R-r-G-Aib-Dab-T-Tle-Tle-T-D-V] (H-[dR]KKR[dR]QRR[dR]G[Aib][Dab]T[Tle][Tle]TDV-OH)	–	–	less than 5%	–	881 nM
YGRKKRRQRRRKLSSIESDV [NA-1, YGRKKRRQR RRKLSSIESDV, reference compound]	83 nM	909 nM	less than 5%	–	–
